# From publication PMC3907537, “Evaluation of the Endothelin Receptor Antagonists Ambrisentan, Bosentan, Macitentan, and Sitaxsentan as Hepatobiliary Transporter Inhibitors and Substrates in Sandwich-Cultured Human Hepatocytes” (PLoS ONE, 2014)
# How the values were obtained:
# [1] = system: sandwich-cultured human hepatocytes; assay: Effect of ERAs on endogenous glycocholic acid (GCA) distribution in sandwich-cultured human hepatocytes; type: cell-based; conditions: 24 h, mean ± standard error, n=3 human livers
# Procedure: (§1) Sandwich-cultured human hepatocytes were obtained from Celsis/IVT (Baltimore, MD) or Life Technologies (Durham, NC). Donors were male (n = 3) and female (n = 1) between the ages of 31 and 62 years old. Hepatic uptake, biliary excretion and in vitro biliary clearance (Clb) were determined using the B-CLEAR® hepatocyte sandwich culture model as described by Liu et al., 1999 [34]. In this system, hepatocytes form functional bile canalicular networks while maintaining the expression and function of key uptake and efflux transporters. The canalicular system of bile pockets remains separate from the cellular culture media due to tight junctions between cells. The integrity of these tight junctions is maintained in the presence of calcium (Plus (+) buffer) while in the absence of calcium (Minus (−) buffer), these tight junctions open and release the contents of the canalicular network into the media.
# (§2) Incubation solutions containing ERA (1, 10 and 100 µM) were prepared in cell culture medium. On the sixth day of culturing of the sandwich-cultured hepatocytes, cell culture medium was removed from the wells and incubation solutions containing the test ERAs were added to the cells. The cells were incubated with ERA solution for 24 h at 37°C. After the exposure, the incubation solutions were removed and the cells were rinsed with Plus (+) or Minus (−) buffer. The buffer solutions were then removed and the cells were incubated with fresh Plus (+) or Minus (−) buffer for 5 min at 37°C. Following this 5 minute incubation, the buffer solutions were collected and any remaining buffers were removed. The cells were then washed three times with ice-cold Plus (+) buffer and the plates were frozen at −80°C until processed for bioanalysis.
# (§3) Study samples were stored in their original 24-well plates at −80°C until prepared for analysis. A volume of 500 µL of cell lysis solution (70∶30 methanol:water) containing 25 nM internal standard was added to each well and mixed for 20 min of mixing. The volume in each well was then transferred to a 96-well filter plate stacked on a Greiner deep well collection plate. The filter plate/collection plate was then centrifuged at 2000 rcf for 5 min. The filtrate was then evaporated to dryness under nitrogen. Samples were reconstituted in 200 µL of sample diluent (60∶40 methanol:10 mM ammonium acetate, native pH), sealed, and placed on a plate shaker for 15 min. These samples were then transferred to a Whatman 96-well 0.45 µm PVDF filter plate stacked on a Costar 3956 plate (HPLC injection plate), centrifuged at 2000 rcf for 2–3 min, and sealed with a silicon cap mat prior to LC-MS/MS analysis. d8-TCA standard spiking solutions were prepared in 50∶50 methanol:water. For a given lysate standard or control, 10 µL was added to each well of a previously frozen analytical plate. Standards representing 0.5–100 pmoles/well and QC’s at the LLQ and ULQ were prepared. These lysate standards and controls were then further processed as described above for unknown study samples. Prepared samples were filtered and analyzed by LC-MS/MS using a Shimadzu binary HPLC system (Columbia, MD) and tandem mass spectrometry using Thermo Electron TSQ® Quantum Discovery MAX™ (Waltham, MA) with an Ion Max ESI source operating in negative ion electrospray ionization mode. Results for unknowns and QCs were calculated using a standard curve based on an internal standard processing method.
# Statistical comparisons across ERA treatments were performed using analysis of variance (ANOVA) with Fisher’s PLSD post hoc analysis (Statview 5.0, SAS Institute, Cary NC); statistical significance was considered to be P<0.05. All mass values were normalized to mg protein by taking the average protein mass in the taurocholate plate determined using a BCA protein assay (Pierce Biotechnology, Rockford, IL). […]
# [2] = system: sandwich-cultured human hepatocytes; assay: Hepatic disposition (intracellular accumulation) of ERAs in sandwich-cultured human hepatocytes; type: in vitro ADME; conditions: sandwich-cultured human hepatocytes, 1, 10 and 100 µM, 10 min; n = 3 donors
# Procedure: as §1
# Incubation solutions containing ERA (1, 10 and 100 µM) were prepared in Plus (+) buffer. Cell culture medium was removed from the wells and the cells were washed twice with Plus (+) or Minus (−) buffer. The wash solutions were then removed and replaced with fresh Plus (+) or Minus (−) buffer. The cells were conditioned for 10 min at 37°C. After the 10 min exposure, the buffer solutions were removed and replaced with the incubation solutions and incubated for 10 min at 37°C. Following 10 min incubation, the incubation solutions were removed and the cells were then washed three times with ice-cold Plus (+) Buffer. The plates were frozen at −80°C until processed for bioanalysis.
# Study samples were stored in their original 24-well plates at −80°C until prepared for analysis. A volume of 500 µL of cell lysis solution (70∶30 methanol:water) containing 25 nM internal standard was added to each well and mixed for 20 min of mixing. […] Prepared samples were filtered and analyzed by LC-MS/MS using a Shimadzu binary HPLC system (Columbia, MD) and tandem mass spectrometry using Thermo Electron TSQ® Quantum Discovery MAX™ (Waltham, MA) with an Ion Max ESI source operating in negative ion electrospray ionization mode. Results for unknowns and QCs were calculated using a standard curve based on an internal standard processing method.
# Data calculations were performed using Microsoft Excel, 2010 with all values reported as mean ± standard deviation (SD). […] All mass values were normalized to mg protein by taking the average protein mass in the taurocholate plate determined using a BCA protein assay (Pierce Biotechnology, Rockford, IL). Cellular accumulation determined in Minus (−) buffer (Accumulation Minus (−) Buffer) represents the total mass of analyte inside the hepatocyte at the end of the incubation time period. […]
# [3] = system: sandwich-cultured human hepatocytes; assay: Effect of ERAs on endogenous glycochenodeoxycholic acid (GCDCA) distribution in sandwich-cultured human hepatocytes; type: cell-based; conditions: 24 h, mean ± standard error, n=3 human livers
# Procedure: as §1, with “Donors were male (n = 3) and female (n = 1) between the ages of 31 and 62 years old.” left out
# as §2, §3
# Statistical comparisons across ERA treatments were performed using analysis of variance (ANOVA) with Fisher’s PLSD post hoc analysis (Statview 5.0, SAS Institute, Cary NC); statistical significance was considered to be P<0.05. All mass values were normalized to mg protein by taking the average protein mass in the taurocholate plate determined using a BCA protein assay (Pierce Biotechnology, Rockford, IL). Cellular accumulation determined in Minus (−) buffer (Accumulation Minus (−) Buffer) represents the total mass of analyte inside the hepatocyte at the end of the incubation time period. […]
compound,measurement,setting,value
Cc1cc2c(cc1CC(=O)c1sccc1S(=O)(=O)Nc1onc(C)c1Cl)OCO2 [sitaxsentan],GCA BEI (% Control),[1]; 1 µM,100.0 ± 18.3 % Control
same,GCA Cellular Accumulation (% Control),[1]; 1 µM,90.9 ± 6.5 % Control
same,GCA Medium Concentration (% Control),[1]; 1 µM,104.0 ± 8.1 % Control
same,GCA Total Accumulation (% Control),[1]; 1 µM,98.6 ± 16.1 % Control
same,GCA BEI (% Control),[1]; 10 µM,84.2 ± 6.0 % Control
same,GCA Cellular Accumulation (% Control),[1]; 10 µM,69.8 ± 11.1 % Control
same,GCA Medium Concentration (% Control),[1]; 10 µM,92.8 ± 3.8 % Control
same,GCA Total Accumulation (% Control),[1]; 10 µM,60.3 ± 7.2 % Control
same,GCA BEI (% Control),[1]; 100 µM,61.7 ± 12.2 % Control
same,GCA Cellular Accumulation (% Control),[1]; 100 µM,18.6 ± 6.9 % Control
same,GCA Medium Concentration (% Control),[1]; 100 µM,75.0 ± 3.5 % Control
same,GCA Total Accumulation (% Control),[1]; 100 µM,14.4 ± 5.4 % Control
same,hepatocyte accumulation relative to the extracellular test concentration,[2],~40 x
same,GCDCA BEI (% Control),[3]; 1 µM,112.0 ± 19.8 % Control
same,GCDCA Cellular Accumulation (% Control),[3]; 1 µM,89.8 ± 10.8 % Control
same,GCDCA Medium Concentration (% Control),[3]; 1 µM,110.0 ± 9.2 % Control
same,GCDCA Total Accumulation (% Control),[3]; 1 µM,99.3 ± 11.0 % Control
same,GCDCA BEI (% Control),[3]; 10 µM,85.7 ± 8.4 % Control
same,GCDCA Cellular Accumulation (% Control),[3]; 10 µM,79.4 ± 12.4 % Control
same,GCDCA Medium Concentration (% Control),[3]; 10 µM,105.0 ± 11.9 % Control
same,GCDCA Total Accumulation (% Control),[3]; 10 µM,73.8 ± 10.5 % Control
same,GCDCA BEI (% Control),[3]; 100 µM,55.5 ± 34.3 % Control
same,GCDCA Cellular Accumulation (% Control),[3]; 100 µM,14.5 ± 2.7 % Control
same,GCDCA Medium Concentration (% Control),[3]; 100 µM,76.5 ± 8.3 % Control
same,GCDCA Total Accumulation (% Control),[3]; 100 µM,12.4 ± 3.0 % Control
